Reference: patent US20100247456A1, “METHODS AND COMPOSITIONS FOR PREVENTING CARIES” (priority 2009, published 2010)
Values joined by “and” are separate entries in the source; they are usually repeats but may differ in a detail not shown here. Equal values may be shown once.

Tested on: caries
Assay: 6-month comparison of silver-diamine-fluoride (SDF) and fluoride varnish in school aged children
Format: in vivo
Protocol: A fluoride composition was used in the study.
The compositions were applied once at the time of the initial exam using a tiny brush to any decayed area for 3 min, then the child rinsed.

[1] = after 6 months, applied once to decayed area for 3 min

Substance: silver diamine fluoride [SDF]
- SDF Number Needed To Treat, Active Caries ([1/(Varnish % − SDF %)], 6 months): 1.2
- SDF Prevented Fraction, Active Caries ([(Varnish % − SDF %)/Varnish %], 6 months): 82.7
- reduction in active caries compared to fluoride varnish (after 6 months): about 80%
- Active Caries, # of School Children, Frequency [1]: 20
- Active Caries, # of School Children, Percent [1]: 16% and 16.8%
- Active and Arrested Caries in same child, # of School Children, Frequency [1]: 69
- Active and Arrested Caries in same child, # of School Children, Percent [1]: 58.0%
- Arrested Caries, # of School Children, Frequency [1]: 27
- Arrested Caries, # of School Children, Percent [1]: 22.7%
- Dental Fillings, # of School Children, Frequency [1]: 3
- Dental Fillings, # of School Children, Percent [1]: 2.5%
